In the supplement of paper PMC10307832:

Columns and labels:
Assay in all cases: relative viability (nuclei count vs DMSO), 5 days (fraction); higher = more cells survive
[1] = compound: CN(C/C=C/C1=CC=C(C=C1)Cl)CC2=CC=CC=C2N(CCO)S(=O)(=O)C3=CC=C(C=C3)OC [KN-93] + Nc1ncn([C@H]2C[C@H](O)[C@@H](CO)O2)c(=O)n1 [Decitabine] (partner 2 µM)
Procedure, shortened: (§1)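 Nuclei were stained with Hoechst during a one-step fixation (final 0.05% Triton X-100, 1% formaldehyde, 1 ug/ml Hoechst) carried out 5 days after dosing, then counted on 4× images. The cells, lung cancer lines in 1536-well plates, had been dosed by pin tool the day after seeding with one drug alone or a fixed anchor-drug dose plus five library-drug doses (not always all listed) in √10 steps. Relative viability is the nuclei count in treated wells divided by that in vehicle wells, and each value is the median of duplicate plates.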

[2] = compound: CN(C/C=C/C1=CC=C(C=C1)Cl)CC2=CC=CC=C2N(CCO)S(=O)(=O)C3=CC=C(C=C3)OC [KN-93] + CC(=O)Nc1cccc(-n2c(=O)n(C3CC3)c(=O)c3c(Nc4ccc(I)cc4F)n(C)c(=O)c(C)c32)c1 [Trametinib] (partner 0.02 µM)
Procedure, shortened: as §1

[3] = compound: CN(C/C=C/C1=CC=C(C=C1)Cl)CC2=CC=CC=C2N(CCO)S(=O)(=O)C3=CC=C(C=C3)OC [KN-93] + NC(=O)Nc1cc(-c2cccc(F)c2)sc1C(=O)N[C@H]1CCCNC1 [AZD7762] (partner 0.2 µM)
Procedure, shortened: as §1

[4] = compound: CN(C/C=C/C1=CC=C(C=C1)Cl)CC2=CC=CC=C2N(CCO)S(=O)(=O)C3=CC=C(C=C3)OC [KN-93] + CC1(C)CCC(c2ccc(Cl)cc2)=C(CN2CCN(c3ccc(C(=O)NS(=O)(=O)c4ccc(N[C@H](CCN5CCOCC5)CSc5ccccc5)c(S(=O)(=O)C(F)(F)F)c4)cc3)CC2)C1 [Navitoclax] (partner 0.5 µM)
Procedure, shortened: as §1

[5] = compound: CN(C/C=C/C1=CC=C(C=C1)Cl)CC2=CC=CC=C2N(CCO)S(=O)(=O)C3=CC=C(C=C3)OC [KN-93] + CCNC(=O)c1noc(-c2cc(C(C)C)c(O)cc2O)c1-c1ccc(CN2CCOCC2)cc1 [Luminespib] (partner 0.01 µM)
Procedure, shortened: as §1

Row | Cell Line | relative viability ([1]; first compound 0.08 µM) | relative viability ([1]; first compound 0.253 µM) | relative viability ([1]; first compound 2.53 µM) | relative viability ([1]; first compound 8 µM) | relative viability ([2]; first compound 0.08 µM) | relative viability ([2]; first compound 0.253 µM) | relative viability ([2]; first compound 2.53 µM) | relative viability ([2]; first compound 8 µM) | relative viability ([3]; first compound 0.08 µM) | relative viability ([3]; first compound 0.253 µM) | relative viability ([3]; first compound 2.53 µM) | relative viability ([3]; first compound 8 µM) | relative viability ([4]; first compound 0.253 µM) | relative viability ([4]; first compound 2.53 µM) | relative viability ([4]; first compound 8 µM) | relative viability ([5]; first compound 0.08 µM) | relative viability ([5]; first compound 0.253 µM) | relative viability ([5]; first compound 2.53 µM) | relative viability ([5]; first compound 8 µM) | relative viability ([4]; first compound 0.08 µM)
1 | HCC-366 | 0.333 | 0.333 | 0.307 | 0.299 | 0.258 | 0.305 | 0.336 | 0.162 | 0.269 | 0.221 | 0.286 | 0.0943 | 1.35 | 1.1 | 0.907 | – | – | – | – | –
2 | HCC-827 | 0.356 | 0.335 | 0.332 | 0.304 | 0.539 | 0.546 | 0.491 | 0.426 | 0.195 | 0.159 | 0.191 | 0.186 | 0.986 | 0.98 | 0.872 | 0.642 | 0.836 | 0.496 | 0.465 | 1.04
3 | HOP-62 | 0.225 | 0.27 | 0.241 | 0.239 | 0.358 | 0.378 | 0.375 | 0.276 | 0.476 | 0.499 | 0.797 | 0.458 | 0.897 | 1.38 | 0.904 | 0.842 | 1.13 | 0.995 | 0.903 | 1.01
4 | IA-LM | – | – | – | – | – | – | – | – | – | – | – | – | 0.826 | 1.23 | 0.439 | – | – | – | – | 0.975
5 | LCLC-103H | 0.657 | 0.69 | 0.673 | 0.518 | 0.692 | 0.678 | 0.609 | 0.551 | 0.732 | 0.808 | 0.822 | 0.626 | – | – | – | 0.948 | 1.22 | 1.04 | 0.756 | –
6 | NCI-H358 | 0.212 | 0.207 | 0.198 | 0.184 | 0.147 | 0.133 | 0.132 | 0.112 | 0.474 | 0.473 | 0.465 | 0.424 | – | – | – | 0.289 | 0.53 | 0.273 | 0.266 | –
7 | NCI-H520 | 0.596 | 0.599 | 0.538 | 0.458 | 0.591 | 0.783 | 0.682 | 0.641 | – | – | – | – | 1.13 | 1.23 | 0.878 | 0.246 | 0.212 | 0.281 | 0.224 | –
8 | NCI-H522 | 0.699 | 0.625 | 0.7 | 0.707 | 0.997 | 0.855 | 0.794 | 0.595 | 0.831 | 0.811 | 0.876 | 0.77 | – | – | – | 1.28 | 1.4 | 1.39 | 1.11 | –
9 | NCI-H650 | 0.325 | 0.272 | 0.302 | 0.311 | 0.933 | 1.08 | 0.998 | 0.794 | 0.984 | 0.996 | 1.23 | 0.978 | – | – | – | 0.697 | 0.76 | 0.855 | 0.579 | –
10 | NCI-H661 | 0.539 | 0.527 | 0.543 | 0.378 | 0.525 | 0.563 | 0.472 | 0.383 | – | – | – | – | – | – | – | 0.896 | 1.06 | 0.851 | 0.542 | –
11 | NCI-H1563 | – | – | – | – | – | – | – | – | – | – | – | – | – | – | – | 0.625 | 0.483 | 0.577 | 0.517 | –
12 | NCI-H1650 | 0.349 | 0.38 | 0.427 | 0.44 | 0.611 | 0.508 | 0.693 | 0.412 | – | – | – | – | 1.2 | 1.44 | 0.951 | 0.182 | 0.187 | 0.208 | 0.19 | 1.24
13 | NCI-H1703 | – | – | – | – | – | – | – | – | 0.117 | 0.115 | 0.105 | 0.153 | 1.11 | 1.04 | 0.179 | – | – | – | – | 0.936
14 | NCI-H2009 | 0.421 | 0.393 | 0.399 | 0.317 | 0.319 | 0.283 | 0.271 | 0.188 | – | – | – | – | 1.21 | 1.23 | 0.869 | 1.05 | 1.11 | 1.08 | 0.746 | 1.16
15 | NCI-H2023 | 0.189 | 0.239 | 0.219 | 0.201 | 0.55 | 0.459 | 0.628 | 0.434 | – | – | – | – | 1.22 | 1.05 | 0.789 | 0.693 | 0.703 | 0.872 | 0.358 | 1
16 | NCI-H2228 | – | – | – | – | 0.413 | 0.539 | 0.573 | 0.153 | – | – | – | – | 0.788 | 0.914 | 0.674 | 0.174 | 0.126 | 0.163 | 0.134 | 1.31
17 | NCI-H2342 | 0.675 | 0.685 | 0.757 | 0.77 | 0.744 | 0.687 | 0.94 | 0.78 | 0.472 | 0.467 | 0.539 | 0.404 | – | – | – | 0.623 | 0.686 | 0.913 | 0.634 | –
18 | SK-LU-1 | 0.627 | 0.702 | 0.633 | 0.364 | 0.46 | 0.594 | 0.51 | 0.317 | – | – | – | – | 0.849 | 1.3 | 0.538 | 0.244 | 0.209 | 0.199 | 0.183 | 0.748
19 | SK-MES-1 | 0.389 | 0.357 | 0.371 | 0.355 | 0.561 | 0.493 | 0.514 | 0.407 | – | – | – | – | 1.18 | 1.56 | 1.21 | 0.899 | 0.69 | 0.728 | 0.286 | 1.14
20 | SW 1573 | 0.494 | 0.615 | 0.466 | 0.212 | 0.518 | 0.565 | 0.627 | 0.149 | – | – | – | – | 1.12 | 1.13 | 0.598 | 0.178 | 0.303 | 0.187 | 0.144 | 0.97
21 | UMC-11 | 0.594 | 0.612 | 0.634 | 0.461 | 0.607 | 0.761 | 0.858 | 0.223 | – | – | – | – | 0.345 | 0.312 | 0.22 | 1.01 | 1.33 | 1.32 | 0.346 | –
